Measurements published in US11891385B1, “1-cyclopropyl-7-(4-((5-(3,5-dichlorobenzylideneamino)-2-thioxo-1,3,4-thiadiazol-3(2H)-yl)methyl)piperazin-1-yl)-6-fluoro-4-oxo-1,4-dihydroquinoline-3-carboxylic aci d as an anti-inflammatory compound” (KING FAISAL UNIVERSITY, priority 2023, dated 2024).
Read-outs that look alike come from different tables or passages of the source.

Target: Bovine serum albumin (Bos taurus, UniProt P02769)
Assay: Bovine Serum Albumin (BSA) assay, in-vitro protein denaturation
Assay type: biochemical
Conditions: for inhibition at 20 µg/mL / inhibition at 40 µg/mL / inhibition at 60 µg/mL / inhibition at 80 µg/mL / inhibition at 100 µg/mL: 72° C. for 10 minutes, turbidity at 660 nm
Procedure: Bovine Serum Albumin Assay (BSA) In vitro-inflammatory activities of the tested samples were determined using a modified method of the BSA assay reported by Williams et al. BSA solution (0.4%, w/v) was prepared in Tris Buffered Saline. The pH was adjusted to 6.4 with glacial acetic acid. Different dilutions of 20, 40, 60, 80, and 100 μg/mL of 1-cyclopropyl-7-(4-((5-(3,5-dichlorobenzylideneamino)-2-thioxo-1,3,4-thiadiazol-3(2H)-yl)methyl)piperazin-1-yl)-6-fluoro-4-oxo-1,4-dihydroquinoline-3-carboxylic acid (IV) and the stock solutions were added to test tubes containing 1 mL of 0.4%, w/v BSA buffer solution. Both negative (solvent) and positive (aspirin) controls were assayed in a similar manner. The solutions were then heated in a water bath at 72° C. for 10 minutes, and cooled for 20 minutes under laboratory conditions. The turbidity of the solutions (level of protein precipitation) was measured at 660 nm in Spectrophotometer (V-770 UV-Visible/NIR Spectrophotometer). The percentage inhibition of precipitation (protein denaturation) was determined relative to the negative control using the following equation: [formula] [formula] Anti-Inflammatory Activity

Bovine serum albumin, sequence (P02769 25-607): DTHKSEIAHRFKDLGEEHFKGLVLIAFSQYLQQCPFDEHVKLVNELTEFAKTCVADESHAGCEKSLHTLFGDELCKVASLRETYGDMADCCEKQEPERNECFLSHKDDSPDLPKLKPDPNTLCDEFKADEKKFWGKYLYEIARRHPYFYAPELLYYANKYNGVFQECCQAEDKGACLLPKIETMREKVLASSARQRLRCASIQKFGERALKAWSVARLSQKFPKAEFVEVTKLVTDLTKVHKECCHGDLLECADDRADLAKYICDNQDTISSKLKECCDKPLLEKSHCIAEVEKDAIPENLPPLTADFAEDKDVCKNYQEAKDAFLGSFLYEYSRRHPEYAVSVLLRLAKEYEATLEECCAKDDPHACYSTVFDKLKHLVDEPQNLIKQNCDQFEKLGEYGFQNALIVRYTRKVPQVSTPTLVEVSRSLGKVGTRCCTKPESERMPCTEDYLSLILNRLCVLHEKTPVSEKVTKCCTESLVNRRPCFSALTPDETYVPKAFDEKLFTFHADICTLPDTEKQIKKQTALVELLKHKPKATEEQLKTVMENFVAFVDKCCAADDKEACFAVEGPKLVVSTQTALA

Row | Compound | in vitro anti-inflammatory activity (result in words) (BSA protein denaturation) | % Inhibition of protein denaturation (Bovine serum albumin) (bovine, 10 min, 100 μg/mL, pH 6.4) | inhibition at 20 µg/mL (read-out: % Inhibition of protein denaturation (Bovine serum albumin), concentration 20 μg/ml) | inhibition at 40 µg/mL (read-out: % Inhibition of protein denaturation (Bovine serum albumin), concentration 40 μg/ml) | inhibition at 60 µg/mL (read-out: % Inhibition of protein denaturation (Bovine serum albumin), concentration 60 μg/ml) | inhibition at 80 µg/mL (read-out: % Inhibition of protein denaturation (Bovine serum albumin), concentration 80 μg/ml) | inhibition at 100 µg/mL (read-out: % Inhibition of protein denaturation (Bovine serum albumin), concentration 100 μg/ml) | inhibition at 20 µg/mL (concentration 20 μg/ml, read-out: % Inhibition of protein denaturation (Bovine serum albumin)) | inhibition at 40 µg/mL (concentration 40 μg/ml, read-out: % Inhibition of protein denaturation (Bovine serum albumin)) | inhibition at 60 µg/mL (concentration 60 μg/ml, read-out: % Inhibition of protein denaturation (Bovine serum albumin)) | inhibition at 80 µg/mL (concentration 80 μg/ml, read-out: % Inhibition of protein denaturation (Bovine serum albumin)) | inhibition at 100 µg/mL (concentration 100 μg/ml, read-out: % Inhibition of protein denaturation (Bovine serum albumin))
1 | O=C(O)c1cn(C2CC2)c2cc(N3CCN(Cn4nc(/N=C/c5cc(Cl)cc(Cl)c5)sc4=S)CC3)c(F)cc2c1=O [IV, 1-cyclopropyl-7-(4-((5-(3,5-dichlorobenzylideneamino)-2-thioxo-1,3,4-thiadiazol-3(2H)-yl)methyl)piperazin-1-yl)-6-fluoro-4-oxo-1,4-dihydroquinoline-3-carboxylic acid] | considerable anti-inflammatory effect | 83.77% | 58% | 68.7% | 73.2% | 80% | 87.6% |  |  |  |  | 
2 | CC(=O)Oc1ccccc1C(=O)O [aspirin, reference compound] |  |  |  |  |  |  |  | 71% | 77.5% | 82.6% | 85.5% | 90.8%
